Read-outs that look alike come from different tables or passages of the source.
Tests used:
[1] = tested on: MYC mRNA expression in SU-DHL-4 cells; assay: Suppressive effect on MYC mRNA expression (Test Example 2); format: cell-based, human; details: test compound 100 nmol/L, 6 hours, qRT-PCR corrected by ACTB, GAPDH; for inhibition at 0.1 µM: Homo sapiens, HPRT1, read-out: Suppression Rate of MYC mRNA Expression (%); for Suppression Rate of MYC mRNA Expression (%): HPRT1
How it was run: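 SU-DHL-4 cells were treated for 6 h at 37 °C with compound (0.1% DMSO final). MYC mRNA was measured by TaqMan qRT-PCR and normalised to the geometric mean of ACTB, GAPDH and HPRT1. Suppression was calculated relative to untreated wells.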

SU-DHL-4 cells = assay: Inhibitory effect on cell viability in SU-DHL-4 cell line (Test Example 1); format: cell-based, human; details: 72 hours; for IC50: SU-DHL-4 (wild type) cells, calculated using the measurement results of test example 1, read-out: SU-DHL-4 WT IC50; for IC90: SU-DHL-4 cells, Cell Counting Kit-8, concentration showing 90% inhibition of cell viability, read-out: SU-DHL-4 Cell Viability Inhibition Rate IC90
How it was run: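 SU-DHL-4 cells were grown at 37° C. under 5% CO2 in RPMI1640 with 10 vol % heat-inactivated FBS plus penicillin/streptomycin, seeded and precultured for 18 to 25 hours, then exposed to test compound at 0.1 vol % DMSO for 72 hours. Viability was read with Cell Counting Kit-8 by absorbance at 450 nm.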

CCC(=O)N1c2ccccc2[C@H](NCc2ccc(C(=O)N3CC(C(=O)Nc4ccc(N[C@@H]5C[C@H](C)N(C(=O)CC)c6ccccc65)cc4)C3)cc2)C[C@@H]1C (relative stereo) [Compound 10g, 1-(4-((((2S*,4R*)-2-Methyl-1-propionyl-1,2,3,4-tetrahydroquinolin-4-yl)amino)methyl)benzoyl)-N-(4-(((2S,4R)-2-methyl-1-propionyl-1,2,3,4-tetrahydroquinolin-4-yl)amino)phenyl)azetidine-3-carboxamide]
inhibition at 0.1 µM [1]: 97.2% | IC50 (SU-DHL-4 cells; Homo sapiens): 0.91 nM

CCC(=O)N1c2ccccc2[C@H](NCCCCC(=O)NCc2cn(-c3ccc(N[C@@H]4C[C@H](C)N(C(=O)CC)c5ccccc54)cc3)nn2)C[C@@H]1C (relative stereo) [Compound 12f, 5-(((2S*,4R*)-2-Methyl-1-propionyl-1,2,3,4-tetrahydroquinolin-4-yl)amino)-N-((1-(4-(((2S,4R)-2-methyl-1-propionyl-1,2,3,4-tetrahydroquinolin-4-yl)amino)phenyl)-1H-1,2,3-triazol-4-yl)methyl)pentane amide]
Suppression Rate of MYC mRNA Expression (%) [1]: 97.9% | IC50 (SU-DHL-4 cells): 0.24 nM | IC90 (SU-DHL-4 cells): 0.42 nM

CCC(=O)N1c2ccccc2[C@H](NCCCCCCCC(=O)Nc2ccc(N[C@@H]3C[C@H](C)N(C(=O)CC)c4ccccc43)cc2)C[C@@H]1C (relative stereo) [Compound 12h, 8-(((2S*,4R*)-2-Methyl-1-propionyl-1,2,3,4-tetrahydroquinolin-4-yl)amino)-N-(4-(((2S,4R)-2-methyl-1-propionyl-1,2,3,4-tetrahydroquinolin-4-yl)amino)phenyl)octanamide]
inhibition at 0.1 µM [1]: 96.5% | IC50 (SU-DHL-4 cells; Homo sapiens): 3.11 nM

CCC(=O)N1c2ccccc2[C@H](NCC23CCC(C(=O)N4CC(C(=O)Nc5ccc(N[C@@H]6C[C@H](C)N(C(=O)CC)c7ccccc76)cc5)C4)(CC2)CC3)C[C@@H]1C (relative stereo) [Compound 17o, 1-(4-((((2S,4R)-2-Methyl-1-propionyl-1,2,3,4-tetrahydroquinolin-4-yl)amino)methyl)bicyclo[2.2.2]octane-1-carbonyl)-N-(4-(((2S*,4R*)-2-methyl-1-propionyl-1,2,3,4-tetrahydroquinolin-4-yl)amino)phenyl)azetidine-3-carboxamide]
inhibition at 0.1 µM [1]: 97.1% | IC50 (SU-DHL-4 cells; Homo sapiens): 0.78 nM | IC90 (SU-DHL-4 cells; Homo sapiens): 2.18 nM

Cc1sc2c(c1C)C(c1ccc(C(=O)NCCCNC(=O)c3ccc(C4=N[C@@H](CC(=O)OC(C)(C)C)c5nnc(C)n5-c5sc(C)c(C)c54)cc3)cc1)=N[C@@H](CC(=O)OC(C)(C)C)c1nnc(C)n1-2 [Compound 1b, Di-tert-butyl 2,2′-[(6S,6′S)-({[propane-1,3-diylbis(azanediyl)]bis(carbonyl)}bis(4,1-phenylene))bis(2,3,9-trimethyl-6H-thieno[3,2-f][1,2,4]triazolo[4,3-a][1,4]diazepine-4,6-diyl)]diacetate]
inhibition at 0.1 µM [1]: 98.4% | IC50 (SU-DHL-4 cells; Homo sapiens): 0.65 nM

CCC(=O)N1c2ccccc2[C@H](Nc2ccc(C(=O)N3CC4CC3CN4C(=O)c3ccc(N[C@@H]4C[C@H](C)N(C(=O)CC)c5ccccc54)cc3)cc2)C[C@@H]1C [Compound 1k, 1,1′-{(2S,2'S,4R,4′R)-{[(2,5-Diazabicyclo[2.2.1]heptane-2,5-dicarbonyl)bis(4,1-phenylene)]bis(azanediyl)}bis[2-methyl-3,4-dihydroquinoline-4,1(2H)-diyl]}bis(propan-1-one)]
inhibition at 0.1 µM [1]: 98.6% | IC50 (SU-DHL-4 cells; Homo sapiens): 0.22 nM

CCC(=O)N1c2ccccc2[C@H](Nc2ccc(C(=O)NCC(=O)CNC(=O)c3ccc(N[C@@H]4C[C@H](C)N(C(=O)CC)c5ccccc54)cc3)cc2)C[C@@H]1C [Compound 1l, N,N′-(2-Oxopropane-1,3-diyl)bis(4-{[(2S,4R)-2-methyl-1-propionyl-1,2,3,4-tetrahydroquinolin-4-yl]amino}benzamide)]
inhibition at 0.1 µM [1]: 98.5% | IC50 (SU-DHL-4 cells; Homo sapiens): 0.03 nM

CCC(=O)N1c2ccccc2[C@H](Nc2ccc(C(=O)NCc3cn(-c4ccc(N[C@@H]5C[C@H](C)N(C(=O)CC)c6ccccc65)cc4)nn3)cc2)C[C@@H]1C [Compound 3a, 4-{[(2S,4R)-2-Methyl-1-propionyl-1,2,3,4-tetrahydroquinolin-4-yl]amino}-N-{[1-(4-{[(2S,4R)-2-methyl-1-propionyl-1,2,3,4-tetrahydroquinolin-4-yl]amino}phenyl)-1H-1,2,3-triazol-4-yl]methyl}benzamide]
inhibition at 0.1 µM [1]: 98.1% | IC50 (SU-DHL-4 cells; Homo sapiens): 0.025 nM

CCC(=O)N1c2ccccc2[C@H](Nc2ccc(C(=O)N3CCn4c(-c5ccc(N[C@@H]6C[C@H](C)N(C(=O)CC)c7ccccc76)cc5)cnc4C3)cc2)C[C@@H]1C [Compound 3e, 1-[(2S,4R)-2-Methyl-4-({4-[3-(4-{[(2S,4R)-2-methyl-1-propionyl-1,2,3,4-tetrahydroquinolin-4-yl]amino}phenyl)-5,6,7,8-tetrahydroimidazo[1,2-a]pyrazine-7-carbonyl]phenyl}amino)-3,4-dihydroquinolin-1(2H)-yl]propan-1-one]
inhibition at 0.1 µM [1]: 98.3% | IC50 (SU-DHL-4 cells; Homo sapiens): 0.1 nM

CCC(=O)N1c2ccccc2[C@H](Nc2ccc(C(=O)NCCNS(=O)(=O)c3ccc(N[C@@H]4C[C@H](C)N(C(=O)CC)c5ccccc54)cc3)cc2)C[C@@H]1C [Compound 4d, 4-{[(2S,4R)-2-Methyl-1-propionyl-1,2,3,4-tetrahydroquinolin-4-yl]amino}-N-{2-[(4-{[(2S,4R)-2-methyl-1-propionyl-1,2,3,4-tetrahydroquinolin-4-yl]amino}phenyl)sulfonamide]ethyl}benzamide]
Suppression Rate of MYC mRNA Expression (%) [1]: 98.3% | IC50 (SU-DHL-4 cells): 4.18 nM | IC90 (SU-DHL-4 cells): 13 nM

CCC(=O)N1c2ccccc2[C@H](Nc2ccc(NC(=O)CNCC(=O)Nc3ccc(N[C@@H]4C[C@H](C)N(C(=O)CC)c5ccccc54)cc3)cc2)C[C@@H]1C [Compound 5d, 2,2′-Azanediylbis(N-(4-(((2S,4R)-2-methyl-1-propionyl-1,2,3,4-tetrahydroquinolin-4-yl)amino)phenyl)acetamide)]
inhibition at 0.1 µM [1]: 97.5% | IC50 (SU-DHL-4 cells; Homo sapiens): 0.31 nM

CCC(=O)N1c2ccccc2[C@H](Nc2ccc(CNCc3cn(-c4ccc(N[C@@H]5C[C@H](C)N(C(=O)CC)c6ccccc65)cc4)nn3)cc2)C[C@@H]1C [Compound 5h, 1-((2S,4R)-2-Methyl-4-((4-((((1-(4-(((2S,4R)-2-methyl-1-propionyl-1,2,3,4-tetrahydroquinolin-4-yl)amino)phenyl)-1H-1,2,3-triazol-4-yl)methyl)amino)methyl)phenyl)amino)-3,4-dihydroquinolin-1(2H)-yl)propan-1-one]
inhibition at 0.1 µM [1]: 97.3% | IC50 (SU-DHL-4 cells; Homo sapiens): 0.06 nM

CCC(=O)N1c2ccccc2[C@H](Nc2ccc(Cn3cc(C(=O)Nc4ccc(N[C@@H]5C[C@H](C)N(C(=O)CC)c6ccccc65)cc4)nn3)cc2)C[C@@H]1C [Compound 5j, 1-(4-(((2S,4R)-2-Methyl-1-propionyl-1,2,3,4-tetrahydroquinolin-4-yl)amino)benzyl)-N-(4-(((2S,4R)-2-methyl-1-propionyl-1,2,3,4-tetrahydroquinolin-4-yl)amino)phenyl)-1H-1,2,3-triazolee-4-carboxamide]
Suppression Rate of MYC mRNA Expression (%) [1]: 96.8% | IC50 (SU-DHL-4 cells): 0.04 nM | IC90 (SU-DHL-4 cells): 0.08 nM

CCC(=O)N1c2ccccc2[C@H](Nc2ccc(Cc3cnc4n3CCN(C(=O)c3ccc(N[C@@H]5C[C@H](C)N(C(=O)CC)c6ccccc65)cc3)C4)cc2)C[C@@H]1C [Compound 5q, 1-((2S,4R)-2-Methyl-4-((4-((7-(4-(((2S,4R)-2-methyl-1-propionyl-1,2,3,4-tetrahydroquinolin-4-yl)amino)benzoyl)-5,6,7,8-tetrahydroimidazo[1,2-a]pyrazin-3-yl)methyl)phenyl)amino)-3,4-dihydroquinolin-1(2H)-yl)propan-1-one]
inhibition at 0.1 µM [1]: 97.2% | IC50 (SU-DHL-4 cells; Homo sapiens): 0.09 nM

CCC(=O)N1c2ccccc2[C@H](Nc2ccc(CCCC(=O)Nc3ccc(N[C@@H]4C[C@H](C)N(C(=O)CC)c5ccccc54)cc3)cc2)C[C@@H]1C [Compound 5r, N,4-Bis(4-(((2S,4R)-2-methyl-1-propionyl-1,2,3,4-tetrahydroquinolin-4-yl)amino)phenyl)butanamide]
inhibition at 0.1 µM [1]: 96.7% | IC50 (SU-DHL-4 cells; Homo sapiens): 0.53 nM

CCC(=O)N1c2ccccc2C(Nc2ccc(NC(=O)C#CCNC(=O)c3ccc(N[C@@H]4C[C@H](C)N(C(=O)CC)c5ccccc54)cc3)cc2)CC1C (stereo partly drawn) [Compound 6h, 4-(((2S,4R)-2-Methyl-1-propionyl-1,2,3,4-tetrahydroquinolin-4-yl)amino)-N-(4-((4-((2-methyl-1-propionyl-1,2,3,4-tetrahydroquinolin-4-yl)amino)phenyl)amino)-4-oxobut-2-yn-1-yl)benzamide]
inhibition at 0.1 µM [1]: 97.2% | IC50 (SU-DHL-4 cells; Homo sapiens): 0.003 nM

CCC(=O)N1c2ccccc2[C@H](Nc2ccc(NC(=O)CCCC(=O)NC3CCC(N[C@@H]4C[C@H](C)N(C(=O)CC)c5ccccc54)CC3)cc2)C[C@@H]1C (stereo partly drawn) [Compound 7o, N^1-((1R,4r)-4-(((2S,4R)-2-Methyl-1-propionyl-1,2,3,4-tetrahydroquinolin-4-yl)amino)cyclohexyl)-N^5-(4-(((2S,4R)-2-methyl-1-propionyl-1,2,3,4-tetrahydroquinolin-4-yl)amino)phenyl)glutaramide]
Suppression Rate of MYC mRNA Expression (%) [1]: 97.4% | IC50 (SU-DHL-4 cells): 0.53 nM | IC90 (SU-DHL-4 cells): 1.15 nM

— patent US20220378923A1, “BET DEGRADER” (KYOWA KIRIN CO., LTD., priority 2019, published 2022)
